Test system: peptide-specific IgG in sera of cancer patients and healthy donors
Test: Measurement of anti-peptide IgG in plasma by LUMINEX multiplexed flow cytometric assay
Type: binding, human
Outline: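 Plasma diluted 1/100 incubated with peptide-coupled colour-coded beads 2 h at RT, then biotinylated goat anti-human IgG (γ-chain) 1 h and streptavidin-PE 30 min; fluorescence read by multiplexed flow cytometry, >100 counted significant. Specificity checked by three rounds of absorption on corresponding versus irrelevant SCCA peptide.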

Q: Which results are given for “QFQKLLTEF (SCCA 84-92 peptide) [SCCA-derived peptide, position 84-92]”?
A: Total: healthy donors with significant peptide-reactive IgG / donors tested (10 healthy donors, significant when fluorescence intensity exceeded 100 at 1/100 dilution): 1/10; Total: cancer patients with significant peptide-reactive IgG / patients tested (71 cancer patients, significant when fluorescence intensity exceeded 100 at 1/100 dilution): 14/71; Fluorescence intesity (serum of Breast Ca. patient #36, 1:100 dilution): 95; Fluorescence intesity (serum of Breast Ca. patient #37, 1:100 dilution): 0; Fluorescence intesity (serum of Breast Ca. patient #38, 1:100 dilution): 31; Fluorescence intesity (serum of Breast Ca. patient #39, 1:100 dilution): 34; Fluorescence intesity (serum of Breast Ca. patient #40, 1:100 dilution): 5; Fluorescence intesity (serum of Breast Ca. patient #41, 1:100 dilution): 182; Fluorescence intesity (serum of Breast Ca. patient #42, 1:100 dilution): 11; Fluorescence intesity (serum of Breast Ca. patient #43, 1:100 dilution): 26; Fluorescence intesity (serum of Breast Ca. patient #44, 1:100 dilution): 20; Fluorescence intesity (serum of Breast Ca. patient #45, 1:100 dilution): 39; Fluorescence intesity (serum of Colon Ca. patient #66, 1:100 dilution): 0; Fluorescence intesity (serum of Colon Ca. patient #67, 1:100 dilution): 47; Fluorescence intesity (serum of Colon Ca. patient #68, 1:100 dilution): 0; Fluorescence intesity (serum of Colon Ca. patient #69, 1:100 dilution): 0; Fluorescence intesity (serum of Colon Ca. patient #70, 1:100 dilution): 0; Fluorescence intesity (serum of Colon Ca. patient #71, 1:100 dilution): 8; Fluorescence intesity (serum of Gastric Ca. patient #56, 1:100 dilution): 18; Fluorescence intesity (serum of Gastric Ca. patient #57, 1:100 dilution): 7; Fluorescence intesity (serum of Gastric Ca. patient #58, 1:100 dilution): 0; Fluorescence intesity (serum of Gastric Ca. patient #59, 1:100 dilution): 118; Fluorescence intesity (serum of Gastric Ca. patient #60, 1:100 dilution): 0; Fluorescence intesity (serum of Gastric Ca. patient #61, 1:100 dilution): 102; Fluorescence intesity (serum of Gastric Ca. patient #62, 1:100 dilution): 0; Fluorescence intesity (serum of Gastric Ca. patient #63, 1:100 dilution): 0; Fluorescence intesity (serum of Gastric Ca. patient #64, 1:100 dilution): 7; Fluorescence intesity (serum of Gastric Ca. patient #65, 1:100 dilution): 0; Fluorescence intesity (serum of Healthy Donor #1, 1:100 dilution): 0; Fluorescence intesity (serum of Healthy Donor #2, 1:100 dilution): 79; Fluorescence intesity (serum of Healthy Donor #3, 1:100 dilution): 0; Fluorescence intesity (serum of Healthy Donor #4, 1:100 dilution): 0; Fluorescence intesity (serum of Healthy Donor #5, 1:100 dilution): 0; Fluorescence intesity (serum of Healthy Donor #6, 1:100 dilution): 0; Fluorescence intesity (serum of Healthy Donor #7, 1:100 dilution): 0; Fluorescence intesity (serum of Healthy Donor #8, 1:100 dilution): 332; Fluorescence intesity (serum of Healthy Donor #9, 1:100 dilution): 33; Fluorescence intesity (serum of Healthy Donor #10, 1:100 dilution): 0; Fluorescence intesity (serum of Pancreas Ca. patient #46, 1:100 dilution): 0; Fluorescence intesity (serum of Pancreas Ca. patient #47, 1:100 dilution): 3; Fluorescence intesity (serum of Pancreas Ca. patient #48, 1:100 dilution): 344; Fluorescence intesity (serum of Pancreas Ca. patient #49, 1:100 dilution): 0; Fluorescence intesity (serum of Pancreas Ca. patient #50, 1:100 dilution): 0; Fluorescence intesity (serum of Pancreas Ca. patient #51, 1:100 dilution): 0; Fluorescence intesity (serum of Pancreas Ca. patient #52, 1:100 dilution): 108; Fluorescence intesity (serum of Pancreas Ca. patient #53, 1:100 dilution): 0; Fluorescence intesity (serum of Pancreas Ca. patient #54, 1:100 dilution): 13; Fluorescence intesity (serum of Pancreas Ca. patient #55, 1:100 dilution): 0; Fluorescence intesity (serum of Uterine cervical Ca. patient #1, 1:100 dilution): 20; Fluorescence intesity (serum of Uterine cervical Ca. patient #2, 1:100 dilution): 2; Fluorescence intesity (serum of Uterine cervical Ca. patient #3, 1:100 dilution): 0; Fluorescence intesity (serum of Uterine cervical Ca. patient #4, 1:100 dilution): 29; Fluorescence intesity (serum of Uterine cervical Ca. patient #5, 1:100 dilution): 15; Fluorescence intesity (serum of Uterine cervical Ca. patient #6, 1:100 dilution): 922; Fluorescence intesity (serum of Uterine cervical Ca. patient #7, 1:100 dilution): 12; Fluorescence intesity (serum of Uterine cervical Ca. patient #8, 1:100 dilution): 28; Fluorescence intesity (serum of Uterine cervical Ca. patient #9, 1:100 dilution): 67; Fluorescence intesity (serum of Uterine cervical Ca. patient #10, 1:100 dilution): 15; Fluorescence intesity (serum of Uterine cervical Ca. patient #11, 1:100 dilution): 23; Fluorescence intesity (serum of Uterine cervical Ca. patient #12, 1:100 dilution): 35; Fluorescence intesity (serum of Uterine cervical Ca. patient #13, 1:100 dilution): 23; Fluorescence intesity (serum of Uterine cervical Ca. patient #14, 1:100 dilution): 20; Fluorescence intesity (serum of Uterine cervical Ca. patient #15, 1:100 dilution): 116; Fluorescence intesity (serum of Uterine cervical Ca. patient #16, 1:100 dilution): 182; Fluorescence intesity (serum of Uterine cervical Ca. patient #17, 1:100 dilution): 56; Fluorescence intesity (serum of Uterine cervical Ca. patient #18, 1:100 dilution): 49; Fluorescence intesity (serum of Uterine cervical Ca. patient #19, 1:100 dilution): 62; Fluorescence intesity (serum of Uterine cervical Ca. patient #20, 1:100 dilution): 106; Fluorescence intesity (serum of Uterine cervical Ca. patient #21, 1:100 dilution): 19; Fluorescence intesity (serum of Uterine cervical Ca. patient #22, 1:100 dilution): 20; Fluorescence intesity (serum of Uterine cervical Ca. patient #23, 1:100 dilution): 57; Fluorescence intesity (serum of Uterine cervical Ca. patient #24, 1:100 dilution): 1819; Fluorescence intesity (serum of Uterine cervical Ca. patient #25, 1:100 dilution): 17; Fluorescence intesity (serum of Uterine cervical Ca. patient #26, 1:100 dilution): 128; Fluorescence intesity (serum of Uterine cervical Ca. patient #27, 1:100 dilution): 28; Fluorescence intesity (serum of Uterine cervical Ca. patient #28, 1:100 dilution): 139; Fluorescence intesity (serum of Uterine cervical Ca. patient #29, 1:100 dilution): 14; Fluorescence intesity (serum of Uterine cervical Ca. patient #30, 1:100 dilution): 33; Fluorescence intesity (serum of Uterine cervical Ca. patient #31, 1:100 dilution): 108; Fluorescence intesity (serum of Uterine cervical Ca. patient #32, 1:100 dilution): 18; Fluorescence intesity (serum of Uterine cervical Ca. patient #33, 1:100 dilution): 141; Fluorescence intesity (serum of Uterine cervical Ca. patient #34, 1:100 dilution): 15; Fluorescence intesity (serum of Uterine cervical Ca. patient #35, 1:100 dilution): 18
